Article PMC6154719 (Molecules : A Journal of Synthetic Chemistry and Natural …, 2017)

Tests used:
Type in all cases: in vitro ADME
CBR1 = target: T1, CBR1 (Rattus norvegicus, UniProt P47727); test: CBR1 activity in rat liver subcellular fraction; settings: 100 µM sesquiterpene, control 21.7 ± 1.6
T1 construct: Frozen liver (both rat and human) was thawed; from tissue; host or cells: rat liver cytosolic fraction
T1 sequence (P47727 1-277): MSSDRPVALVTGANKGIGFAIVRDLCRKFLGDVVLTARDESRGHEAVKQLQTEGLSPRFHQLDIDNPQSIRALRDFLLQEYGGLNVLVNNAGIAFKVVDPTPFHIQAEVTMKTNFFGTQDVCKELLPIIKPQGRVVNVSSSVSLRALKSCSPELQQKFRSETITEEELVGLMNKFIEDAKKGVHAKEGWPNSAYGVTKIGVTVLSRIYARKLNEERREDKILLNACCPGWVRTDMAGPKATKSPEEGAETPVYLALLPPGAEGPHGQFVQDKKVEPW
Protocol: (§1) Enzyme activities were assayed in human and rat liver cytosolic and microsomal fractions. The enzyme assays (each performed in 4–8 replicates) were repeated three times (HPLC measurement of CYP activities was repeated only twice, Table 3). Inhibition studies were carried out by incubation of specific substrates in the presence of sesquiterpenes (in the range 0–100 µM).
(§2) The assays of all other enzymes were based on spectrophotometric detection of product formed or detection of decreasing substrate/cofactor levels using microplate reader Tecan Infinite M200 in cytosolic or microsomal fractions. Enzyme activities were determined using slight modifications of previously-published methods: carbonyl reducing enzymes (AKR1A, AKR1C, CBR1 [45], NQO1 [46]), UDP-glucuronosyltransferase (UGT [47]), sulfotransferase (SULT [48]), and cytosolic glutathione-S-transferase (GST [49]).
(§3) Sesquiterpenes CNER, TNER and FAR, non-volatile liquids, were pipetted, and proper concentration was calculated according to density. All compounds were dissolved in DMSO. The final solvent concentration in the inhibition assays was 1%, which had no effect on the enzyme activity (data not shown). Non-enzymatic interference of sesquiterpenes with some compounds in the reaction mixtures (e.g., fluorescence enhancing or quenching) was considered and excluded. All experiments were performed in three replicates, if not stated otherwise.
(§4) CNER, TNER and FAR at a fixed concentration of 100 µM were screened for inhibition of cytosolic AKR1A1, AKR1C, CBR1, NQO1, SULT, and GST, and microsomal CYPs and UGT. The degree of inhibition caused by sesquiterpenes was compared with non-inhibited control reactions, which contained solvent without sesquiterpenes.

AKR1A = target: T2, AKR1A (Homo sapiens, UniProt P14550); test: AKR1A activity in human liver subcellular fraction; settings: 100 µM sesquiterpene, control 8.45 ± 0.90
T2 construct: Frozen liver (both rat and human) was thawed; from tissue; host or cells: human liver cytosolic fraction
T2 sequence (P14550 1-325): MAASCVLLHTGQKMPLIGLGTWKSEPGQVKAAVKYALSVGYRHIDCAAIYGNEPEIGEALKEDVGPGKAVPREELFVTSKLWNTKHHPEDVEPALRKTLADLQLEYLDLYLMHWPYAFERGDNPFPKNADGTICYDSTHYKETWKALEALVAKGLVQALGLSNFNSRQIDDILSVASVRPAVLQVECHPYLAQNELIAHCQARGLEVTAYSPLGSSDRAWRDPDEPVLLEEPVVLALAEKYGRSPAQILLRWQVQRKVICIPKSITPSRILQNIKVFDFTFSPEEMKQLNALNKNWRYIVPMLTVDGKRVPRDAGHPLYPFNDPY
Protocol: as §1, §2, §3, §4

CYP2B/3A [1] = test: CYP2B/3A (BROD activity, benzyloxyresorufin O-debenzylation) in human liver microsomes; settings: for Specific Activity, CYP2B/3A (BROD activity): in the presence of 100 µM sesquiterpene, control 1.22 ± 0.05; for inhibition at 5 µM: liver microsomes, human, 5 µM inhibitor; for inhibition at 5 µM / IC50: probe benzyloxyresorufin
Protocol: as §1
(§5) Enzyme activities of individual CYP forms were measured according to established protocols. The following microsomal CYP activities were tested: CYP2A6, coumarin 7-hydroxylation; CYP2B6, 7-ethoxy-4-(trifluoromethyl)coumarin 7-deethylation, CYP2C9, diclofenac 4′-hydroxylation, CYP2C19 assay, S-mephenytoin 4′-hydroxylation, CYP2D6 on bufuralol 1′-hydroxylation, CYP2E1, chlorzoxazone 6-hydroxylation and CYP3A4, testosterone 6β-hydroxylation, and midazolam 1′-hydroxylation. Activities were measured using the Prominence HPLC system (Shimadzu, Kyoto, Japan), equipped with a LiChroCART 250-4 LiChrospher 100 RP-18 column or Chromolith®HighResolution RP-18 end-capped column (Merck, Darmstadt, Germany) and UV or fluorescence detection, according to the cited literature. Further incubation details are described either in the corresponding references, as well as in the papers from this laboratory e.g., [42, 43, 44]. CYP1A2, 7-ethoxyresorufin O-deethylation, and CYP3A4/2B6 (human), CYP2B1 (rat), benzyloxyresorufin O-debenzylation were measured using the microplate reader Tecan Infinite M200 (Tecan Group; Mannedorf, Switzerland).
as §3, §4
(§6) The concentration of sesquiterpenes required for 50% inhibition of enzyme activity, the IC50 value, was determined. Their final concentrations in the reaction mixture were proposed to cover the entire inhibitory range of these compounds (1–100 µM). The IC50 values for each sesquiterpene were determined by plotting sigmoidal dose response curves of specific enzyme activity vs. logarithm of sesquiterpene concentration using GraphPad Prism version 6.07 for Windows (GraphPad Software Inc., La Jolla, CA, USA).
(§7) The kinetic inactivation study of the CYP1A2 (EROD activity) and CYP2B/3A (BROD activity), both in rat and human, with TNER, was performed to find out the mechanism of enzyme inhibition by this sesquiterpene. Mechanism of EROD and BROD inhibition was tested at the final ethoxyresorufin or benzyloxyresorufin concentrations 0.5–5.0 µM. The concentration of TNER was 5.0 µM.
(§8) Experimental data were fitted to the Michaelis-Menten equation, basic kinetic parameters were determined using the program GraphPad Prism version 6.07 for Windows. The type of inhibition was estimated using a Lineweaver-Burk (double-reciprocal) plot.

SULT [2] = test: SULT activity in human liver subcellular fraction; settings: 100 µM sesquiterpene, control 2.73 ± 0.18
Protocol: as §1, §2, §3, §4

CYP2B/3A [3] = test: CYP2B/3A (BROD activity, benzyloxyresorufin O-debenzylation) in rat liver microsomes; settings: for IC50: probe benzyloxyresorufin; for Specific Activity, CYP2B/3A (BROD activity): in the presence of 100 µM sesquiterpene, control 1.74 ± 0.02
Protocol: as §1, §5, §3, §4, §6, §7, §8

SULT [4] = test: SULT activity in rat liver subcellular fraction; settings: 100 µM sesquiterpene, control 8.74 ± 0.52
Protocol: as §1, §2, §3, §4

AKR1C = AKR1C activity in human liver subcellular fraction; settings: 100 µM sesquiterpene, control 23.5 ± 2.4
Protocol: as §1, §2, §3, §4

SMILES | Specific activity, CBR1 (CBR1) [nmol/mg/min] | Specific activity, AKR1A (AKR1A) [nmol/mg/min] | Specific Activity, CYP2B/3A (BROD activity) (CYP2B/3A [1]; human liver microsomes) [pmol/mg/min] | inhibition at 5 µM (CYP2B/3A [1]) [%] | IC50 (CYP2B/3A [1]; human liver microsomes) [µM] | Specific activity, SULT (SULT [2]) [nmol/mg/min] | IC50 (CYP2B/3A [3]; rat liver microsomes) [µM] | Specific Activity, CYP2B/3A (BROD activity) (CYP2B/3A [3]; rat liver microsomes) [pmol/mg/min] | Specific activity, SULT (SULT [4]) [nmol/mg/min] | Specific activity, AKR1C (AKR1C) [nmol/mg/min] | K’M (CYP2B/3A [1]; human liver microsomes, benzyloxyresorufin 0.5–5.0 µM in the presence of TNER 5 µM, KM without TNER 0.93 ± 0.22) [µM] | V’MAX (CYP2B/3A [1]; human liver microsomes, benzyloxyresorufin 0.5–5.0 µM in the presence of TNER 5 µM, VMAX without TNER 2.27 ± 0.17) [nM/min] | type of inhibition, BROD activity (CYP2B/3A [1]; human microsomes, 5 µM TNER, benzyloxyresorufin 0.5–5.0 µM) | K’M (CYP2B/3A [3]; rat liver microsomes, benzyloxyresorufin 0.5–5.0 µM in the presence of TNER 5 µM, KM without TNER 0.74 ± 0.12) [µM] | V’MAX (CYP2B/3A [3]; rat liver microsomes, benzyloxyresorufin 0.5–5.0 µM in the presence of TNER 5 µM, VMAX without TNER 7.04 ± 0.35) [nM/min] | type of inhibition, BROD activity (CYP2B/3A [3]; rat microsomes, 5 µM TNER, benzyloxyresorufin 0.5–5.0 µM)
C=CC(C)(O)CC/C=C(/C)CCC=C(C)C (stereo not drawn) [CNER, cis-nerolidol] | 19.5 ± 1.4 | 6.88 ± 0.29 | 0.168 ± 0.007 | 71 | 1.32 | 3.12 ± 0.29 | 6.47 | 0.331 ± 0.009 | 8.74 ± 0.26 | 22.7 ± 1.5 |  |  |  |  |  | 
CC(C)=CCC/C(C)=C/CC/C(C)=C/CO [FAR, farnesol] | 21.1 ± 1.4 | 7.62 ± 0.30 | 0.033 ± 0.004 | 85 | 1.78 | 2.72 ± 0.23 | 4.43 | 0.212 ± 0.003 | 8.55 ± 0.30 | 24.0 ± 1.5 |  |  |  |  |  | 
C=CC(C)(O)CC/C=C(\C)CCC=C(C)C (stereo not drawn) [TNER, trans-nerolidol] | 20.5 ± 1.6 | 6.75 ± 0.22 | 0.188 ± 0.005 | 68 | 2.4 | 3.20 ± 0.26 | 5.11 | 0.153 ± 0.008 | 8.48 ± 0.28 | 21.4 ± 1.0 | 0.94 ± 0.39 | 0.74 ± 0.10 | non-competitive | 1.26 ± 0.39 | 0.81 ± 0.09 | non-competitive
